According to article PMC5390467, “Novel lead structures with both Plasmodium falciparum gametocytocidal and asexual blood stage activity identified from high throughput compound screening” (Malaria Journal, 2017):

Tests used:
[1] = test system: P. falciparum NF54 gametocytes; experiment: gametocyte viability assay (AlamarBlue); type: cell-based, Plasmodium falciparum; settings: for IC50: P. falciparum NF54 stage III-V gametocytes, 72 h, AlamarBlue, mean ± SD, n = 3; for ratio of IC50s, lower IC50 in gametocyte viability assay than in asexual parasite growth assay: asexual versus gametocyte; for Asexual/Gametocyte: ratio of asexual IC50 to gametocyte IC50
Procedure: (§1) Asexual parasites of P. falciparum strain NF54 were cultured as described previously. Briefly, parasites were maintained in RPMI 1640 medium containing 10% positive human serum + erythrocytes (5% haematocrit), 2.5% sodium bicarbonate and 11 µg/mL gentamicin at 37 °C with 5% CO2, 5% O2 and 90% N2. Gametocyte cultures were set up at 0.1% parasitaemia and on days 9–10 treated with 50 mM N-acetylglucosamine (NAG) to block further asexual growth. Stage III–V gametocytes were isolated by Percoll density gradient centrifugation on day 12 and returned to culture for 24 h before being used in the assay. At the time of the assay over 73% of the gametocytes were stage IV or V (Additional file 1). HepG2 cells (ATCC, cat. no. 77400) were cultured in 175-cm^2 tissue culture flasks with 30 ml growth medium at 37 °C in a 5% CO2 and 5% O2 humidified atmosphere. Growth medium was made with Dulbecco’s Modified Eagle Medium with 10% fetal bovine serum (FBS). Growth medium was replaced every other day and cells were passaged at 75% confluence.
Compounds from the Sytravon library (a retired Pharma screening collection that contains a diversity of novel small molecules, with an emphasis on medicinal chemistry-tractable scaffolds) were obtained as powder samples and dissolved in DMSO as […] stock solutions. Compound screening experiments were performed as previously described. In the primary screen, two concentrations for each compound were tested. No technical and biological replicates were involved. In the follow-up confirmation studies, three biological replicates were tested for each compound in both parasite assays. The positive control was 46 µM of Torin 2 and negative control was DMSO. Briefly, 2.5 μL/well incomplete medium was dispensed into each well of 1536-well plates using the Multidrop Combi followed by 23 nL compound transferring using the NX-TR Pintool (WAKO Scientific Solutions, San Diego, CA). Then, 2.5 μL/well of gametocytes was dispensed with a seeding density of 20,000 cells/well using the Multidrop Combi. The assay plates were incubated for 72 h at 37 °C with 5% CO2. After addition of 5 μL/well of 2X AlamarBlue dye (Life Technologies, cat. no. DAL1100), the plates were incubated for 24 h at 37 °C with 5% CO2 and then were read in a fluorescence detection mode (Ex = 525 nm, Em = 598 nm) on a ViewLux plate reader (PerkinElmer).

[2] = test system: P. falciparum NF54 asexual parasites; experiment: asexual parasite growth inhibition assay (SYBR Green); type: cell-based, Plasmodium falciparum; settings: 72 h, mean ± SD, n = 3
Procedure: as §1
Drug activity on asexual stage parasites was tested using a SYBR Green assay as described previously. Briefly, 2.5 μL/well complete culture medium was dispensed into each well of 1536-well plates using the Multidrop Combi followed by 23 nL compound transferring using the NX-TR Pintool. Parasites were diluted to 0.5% parasitaemia in complete culture medium with 2% haematocrit and drugs diluted in DMSO (≤0.5%). The pre-diluted parasites were dispensed into a 1536-well plate (2.5 μL/well). After 72 h incubation under the standard culture conditions, 5 μL/well of lysis buffer containing SYBR Green I was added to the parasite culture and incubated for 30 min at room temperature. The fluorescence of each well was measured in a fluorescence detection mode (Ex = 490 nm, Em = 520 nm) using a ViewLux plate reader (PerkinElmer).

HepG2 cells = experiment: HepG2 cytotoxicity assay (AlamarBlue); type: cell-based, human; settings: for cytotoxicity at 46 µM: Homo sapiens, read-out: HepG2, IC50 (dash = less than 25% cytotoxicity); for cytotoxicity at 46 µM / HepG2, IC50 (dash = less than 25% cytotoxicity) / IC50: HepG2 cells, 72 h, AlamarBlue; for cytotoxicity at 46 µM / HepG2, IC50 (dash = less than 25% cytotoxicity): up to 46 µM; for IC50 / maximum response, HepG2 cytotoxicity: titration 0.001 to 46 µM; for IC50: mean ± SD, n = 3
Procedure: as §1
Drug activity on HepG2 was tested using an AlamarBlue assay as previously described. Briefly, 5 μL/well of HepG2 cells were dispensed with a seeding density of 1000 cells/well using the Multidrop Combi. 23 nL compound was transferred using the NX-TR Pintool. After 72 h incubation under the standard culture condition, 5 μL/well of 2X AlamarBlue dye was added to the cells, the plates were incubated for 2 h at 37 °C with 5% CO2 and then were read in a fluorescence detection mode (Ex = 525 nm, Em = 598 nm) on a ViewLux plate reader.

Structure (SMILES) | IC50 ([1]; Plasmodium falciparum) | ratio of IC50s, lower IC50 in gametocyte viability assay than in asexual parasite growth assay [1] | Asexual/Gametocyte [1] | IC50 ([2]; Plasmodium falciparum) | cytotoxicity at 46 µM (HepG2 cells) | IC50 [1] | IC50 [2] | HepG2, IC50 (dash = less than 25% cytotoxicity) (HepG2 cells) | IC50 (HepG2 cells) | maximum response, HepG2 cytotoxicity (HepG2 cells)
COc1ccc(Nc2cc(C)nc(-n3nc(C)cc3C)n2)cc1Cl [NCGC00134126] | 1.19 ± 0.05 µM | ~ fourfold | 4.02 | 4.78 ± 0.43 µM | < 25% |  |  |  |  | 
Cc1cc(Nc2ccc(C(C)C)cc2)nc(-n2nc(C)cc2C)n1 [NCGC00134128] | 1.18 ± 0.17 µM |  | 1.64 | 1.93 ± 0.13 µM | < 25% |  |  |  |  | 
COc1ccc(Nc2c(-c3ccccn3)nc3ccc(Cl)cn23)cc1 [NCGC00104528] |  |  | 1.56 |  |  | 8.91 ± 0.2 µM | 13.9 ± 0.93 µM | – (Indicates compounds with less than 25% cytotoxicity at up to 46 µM) |  | 
CCc1ccc(Oc2c(C(F)(F)F)oc3c(CN4CCN(CC)CC4)c(O)ccc3c2=O)cc1 [NCGC00101506] |  |  | 0.11 |  |  | 4.82 ± 0.21 µM | 0.54 ± 0.05 µM | – (Indicates compounds with less than 25% cytotoxicity at up to 46 µM) |  | 
CCN(CC)CCCNC(=O)CSc1c2c(nc3cc(Cl)ccc13)CCCC2 [NCGC00110901] |  | ~ fourfold | 3.41 |  |  | 10.6 ± 1.32 µM | 36.1 ± 15.2 µM | – (Indicates compounds with less than 25% cytotoxicity at up to 46 µM) |  | 
CC(C)c1ccccc1Oc1c(C(F)(F)F)oc2c(CN3CCN(C)CC3)c(O)ccc2c1=O [NCGC00100597] |  |  | 0.10 |  |  | 6.04 ± 1.9 µM | 0.63 ± 0.05 µM | – (Indicates compounds with less than 25% cytotoxicity at up to 46 µM) |  | 
CN1CCN(c2nc3c(S(=O)(=O)c4ccc(Br)cc4)nnn3c3ccsc23)CC1 [NCGC00123034] |  |  | 0.92 |  |  | 35.2 ± 4.52 µM | 32.1 ± 12.6 µM | – (Indicates compounds with less than 25% cytotoxicity at up to 46 µM) |  | 
CC(C)(C)OC(=O)N1CCC(c2c(C(=O)NCCN3CCOCC3)cnn2-c2ccccc2)CC1 [NCGC00127015] |  |  | 0.15 |  |  | 20.3 ± 0.31 µM | 3.05 ± 0.27 µM |  | 38.4 µM | 87.2%
Cc1cc(Nc2ccc(F)cc2F)nc(-n2nc(C)cc2C)n1 [NCGC00134158] |  |  | 2.26 |  |  | 2.08 ± 0.18 µM | 4.7 ± 0.52 µM | – (Indicates compounds with less than 25% cytotoxicity at up to 46 µM) |  | 
Cc1ccc2nc(-c3ccccn3)c(Nc3ccc(F)cc3)n2c1 [NCGC00106091] |  |  | 1.84 |  |  | 2.45 ± 0.42 µM | 4.51 ± 1.29 µM | – (Indicates compounds with less than 25% cytotoxicity at up to 46 µM) |  | 
CC(C)(C)OC(=O)N1CCC(c2c(C(=O)NCCN3CCC(Cc4ccccc4)CC3)cnn2-c2cccc(Cl)c2)CC1 [NCGC00126892] |  |  | 0.24 |  |  | 31.3 ± 12.8 µM | 7.49 ± 0.86 µM |  | 34.4 µM | 93.0%
Cc1ccn2c(Nc3ccccc3C)c(-c3ccccn3)nc2c1 [NCGC00106119] |  |  | 1.50 |  |  | 2.82 ± 0.3 µM | 4.22 ± 0.29 µM | – (Indicates compounds with less than 25% cytotoxicity at up to 46 µM) |  | 
COc1ccccc1Cn1c(CNS(=O)(=O)c2cccc([N+](=O)[O-])c2)nc2cccnc21 [NCGC00134795] |  |  | 0.23 |  |  | 4.25 ± 0.64 µM | 0.96 ± 0.3 µM | – (Indicates compounds with less than 25% cytotoxicity at up to 46 µM) |  | 
COc1ccc(CCN2CCC(CNC(=O)c3cnn(-c4ccccc4)c3C3CCN(C(=O)OC(C)(C)C)CC3)CC2)cc1 [NCGC00126987] |  |  | 0.05 |  |  | 30.6 ± 1.95 µM | 1.47 ± 0.04 µM |  | 38.6 ± 0.42 µM | 86.1%
Cc1cc(Nc2ccc(F)cc2)nc(-n2nc(C)cc2C)n1 [NCGC00134124] | 1.55 ± 0.11 µM | ~ fourfold | 3.85 | 5.96 ± 0.7 µM | < 25% |  |  |  |  | 
Cc1cccc(Nc2cc(C)nc(-n3nc(C)cc3C)n2)c1 [NCGC00134130] | 1.42 ± 0.24 µM |  | 2.30 | 3.26 ± 0.5 µM | < 25% |  |  |  |  | 
CCOc1ccccc1N(C)C(=O)Cn1cnc2sc(C)c(S(=O)(=O)N3CCC(C)CC3)c2c1=O [NCGC00104044] |  |  | 0.26 |  |  |  | 9.94 ± 0.93 µM | – (Indicates compounds with less than 25% cytotoxicity at up to 46 µM) |  | 
Cc1cc(Nc2ccc(Cl)cc2C)nc(-n2nc(C)cc2C)n1 [NCGC00134136] |  |  | 1.60 |  |  | 2.57 ± 0.48 µM | 4.12 ± 0.1 µM | – (Indicates compounds with less than 25% cytotoxicity at up to 46 µM) |  | 
Cc1ccc2nc(-c3ccccn3)c(Nc3ccccc3C)n2c1 [NCGC00106087] |  |  | 2.24 |  |  | 3.34 ± 0.51 µM | 7.49 ± 4.11 µM | – (Indicates compounds with less than 25% cytotoxicity at up to 46 µM) |  | 
Cc1ccn2c(Nc3ccc(F)cc3)c(-c3ccccn3)nc2c1 [NCGC00106780] | 1.82 ± 0.11 µM |  | 1.94 | 3.53 ± 1.21 µM | < 25% |  |  |  |  | 
Cc1cc(Nc2cc(F)ccc2C)nc(-n2nc(C)cc2C)n1 [NCGC00134156] |  |  | 1.68 |  |  | 2.1 ± 0.73 µM | 3.53 ± 0.27 µM | – (Indicates compounds with less than 25% cytotoxicity at up to 46 µM) |  | 
Cc1ccc(C)c(Oc2c(C(F)(F)F)oc3c(CN4CCN(C)CC4)c(O)ccc3c2=O)c1 [NCGC00141020] |  |  | 0.22 |  |  | 4.86 ± 0.03 µM | 1.07 ± 0.37 µM | – (Indicates compounds with less than 25% cytotoxicity at up to 46 µM) |  | 
